Results taken from patent US20250188080A1, “IMIDAZOLONYLQUINOLINE COMPOUNDS AND THERAPEUTIC USES THEREOF” (Merck Patent GmbH, priority 2019, published 2025).

Experiments:
[1] = Dynamic vapor sorption (DVS) water uptake; type: physicochemical
Procedure: DCS water vapour sorption isotherms were acquired on DVS instrument with microbalance and incubator (DVS-Intrinsic, Surface Measurement Systems, SMS). Powder samples were accurately weighed into disposable Al pans and placed on the sample position of the DVS instrument. A nitrogen overall follow rate of 200 mL/min (combined dry and humid stream) was used for humidification. […] For all RH steps, an equilibrium condition of dm/dt≤0.0005 wt %/min was used, with a minimum RH step time of 10 minutes and a maximum RH step time (timeout) of 360 minutes.

[2] = Non-sink dissolution in FaSSIF (pH 6.5); type: physicochemical; settings: FaSSIF buffer solution (pH 6.5), FIG. 9
Procedure: Non-sink dissolution profiles for solid-state forms were acquired using shaked-flask method with excess solid material in FaSSIF medium (pH 6.5) with time-resolved sampling for determination of dissolved quantities of API.
Approx. 10-20 mg of solid sample were weighed into glass vials. 7 ml of respective medium (prewarmed to 37° C.) were added and the suspension was shaken at 450 rpm at 37° C. After 5 min, 10 min, 15 min, 30 min, 60 min, 120 min, 24 h and 48 h, […] was withdrawn and filtered through a 0.2 μm syringe filter. Clear filtrate was analysed by HPLC after suitable dilution to measure the amount of compound/form (may also be referred to as API) dissolved.
FaSSIF: 3 mM sodium taurocholate; 0.75 mM lecithin; 105.9 mM sodium chloride; 28.4 mM monobasic sodium phosphate and 8.7 mM sodium hydroxide, pH 6.5
Levels of dissolved compound/form were analysed by HPLC, with the following conditions: • Column: Chromolith RP-18e 100-3 mm • Solvent A: water/formic acid (999:1; v/v) • Solvent B: acetonitrile/formic acid (999:1; v/v) • Injection volume: 5 μL • Column temperature: 37° C. • HPLC-Gradient: […]

| Initial dissolution rate compared with parent Compound 1 [2] | SMILES | other results |
| --- | --- | --- |
| – | COc1cc2ncc3c(c2cc1-c1cn(C)nc1C)n(-c1c(F)cncc1OC)c(=O)n3C [Form A2] | Water adsorbed (DVS) ([1]; up to a relative humidity of 100%, 25° C.): < 2% |
| faster initial dissolution rate | COc1cc2ncc3c(c2cc1-c1cn(C)nc1C)n(-c1c(F)cncc1OC)c(=O)n3C.O=S(=O)(O)c1ccc2ccccc2c1 [Compound 1 napsylate] | – |
| – | COc1cc2ncc3c(c2cc1-c1cn(C)nc1C)n(-c1c(F)cncc1OC)c(=O)n3C [Form A3] | Water adsorption (DVS), in words ([1]; up to a relative humidity of about 70%, 25° C.): very little water adsorption |
| faster initial dissolution rate | COc1cc2ncc3c(c2cc1-c1cn(C)nc1C)n(-c1c(F)cncc1OC)c(=O)n3C.O=C(O)/C=C/C(=O)O [Compound 1 fumarate] | Hygroscopic properties [1]: absence of hygroscopic properties |
| faster initial dissolution rate | COc1cc2ncc3c(c2cc1-c1cn(C)nc1C)n(-c1c(F)cncc1OC)c(=O)n3C.O=S(=O)(O)CCS(=O)(=O)O [Compound 1 edisylate] | – |
